Measurements taken from PubChem BioAssay (NCI).
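GI50: concentration for 50% inhibition of growth. Definition used: TGI = concentration required for complete inhibition of growth.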

How the values were obtained:
Experiment in all cases: NCI anticancer screen, dose series, 384-well format
[1] = tested on: 786-0 renal
[2] = tested on: A498 renal
[3] = tested on: A549 NSCLC
[4] = tested on: ACHN renal
[5] = tested on: BT-549 breast
[6] = tested on: CAKI-1 renal
[7] = tested on: CCRF-CEM leukemia
[8] = tested on: COLO 205 colon
[9] = tested on: EKVX NSCLC
[10] = tested on: HCC-2998 colon
[11] = tested on: HCT-116 colon
[12] = tested on: HCT-15 colon
[13] = tested on: HL-60(TB) leukemia
[14] = tested on: HOP-62 NSCLC
[15] = tested on: HS 578T breast
[16] = tested on: HT29 colon
[17] = tested on: IGROV1 ovarian
[18] = tested on: K-562 leukemia
[19] = tested on: KM12 colon
[20] = tested on: LOX IMVI melanoma
[21] = tested on: M14 melanoma
[22] = tested on: MALME-3M melanoma
[23] = tested on: MDA-MB-231 breast
[24] = tested on: MDA-MB-435 melanoma
[25] = tested on: MDA-MB-468 breast
[26] = tested on: MOLT-4 leukemia
[27] = tested on: NCI-H226 lung
[28] = tested on: NCI-H23 lung
[29] = tested on: NCI-H322M lung
[30] = tested on: NCI-H460 NSCLC
[31] = tested on: NCI-H522 lung
[32] = tested on: NCI/ADR-RES ovarian
[33] = tested on: OVCAR-3 ovarian
[34] = tested on: OVCAR-4 ovarian
[35] = tested on: OVCAR-5 ovarian
[36] = tested on: OVCAR-8 ovarian
[37] = tested on: PC-3 prostate
[38] = tested on: RPMI-8226 leukemia
[39] = tested on: RXF 393 renal
[40] = tested on: SF-268 CNS
[41] = tested on: SF-295 CNS
[42] = tested on: SF-539 CNS
[43] = tested on: SK-MEL-2 melanoma
[44] = tested on: SK-MEL-28 melanoma
[45] = tested on: SK-MEL-5 melanoma
[46] = tested on: SK-OV-3 ovarian
[47] = tested on: SN12C renal
[48] = tested on: SW-620 colon
[49] = tested on: T-47D breast
[50] = tested on: U251 glioblastoma
[51] = tested on: UACC-257 melanoma
[52] = tested on: UACC-62 melanoma
[53] = tested on: UO-31 renal

`CS(=O)(=O)Nc1cc(-c2ccc3ncnc(Nc4ccc(F)c(Cl)c4)c3c2)cnc1Cl` was tested, and the GI50 [1] was 1350 nM, the TGI [1] was 4820 nM and the GI50 [2] was 905 nM. It also gave a TGI [2] of 4060 nM, a GI50 [3] of 1370 nM and a TGI [3] of 2840 nM. The GI50 [4] was 1800 nM, the TGI [4] was over 100000 nM and the GI50 [5] was 573 nM. The TGI [5] was 2340 nM, the GI50 [6] was 492 nM and the TGI [6] was 2020 nM. It also gave a GI50 [7] of 166 nM, a TGI [7] of 466 nM and a GI50 [8] of 1210 nM. The TGI [8] was 2990 nM, the GI50 [9] was 498 nM and the TGI [9] was 2060 nM. For the same molecule, the GI50 [10] was 1180 nM, the TGI [10] was 2620 nM and the GI50 [11] was 1140 nM. The TGI [11] was 2640 nM, the GI50 [12] was 885 nM and the TGI [12] was 3140 nM. For the same molecule, the GI50 [13] was 158 nM, the TGI [13] was 1060 nM and the GI50 [14] was 1430 nM. For the same molecule, the TGI [14] was 5190 nM, the GI50 [15] was 501 nM and the TGI [15] was 2310 nM. It also gave a GI50 [16] of 1110 nM, a TGI [16] of 2520 nM and a GI50 [17] of 154 nM. The TGI [17] was 471 nM, the GI50 [18] was 1520 nM and the TGI [18] was 10600 nM. It also gave a GI50 [19] of 2860 nM, a TGI [19] of 19900 nM and a GI50 [20] of 1220 nM. It also gave a TGI [20] of 2560 nM, a GI50 [21] of 1140 nM and a TGI [21] of 4000 nM. It also gave a GI50 [22] of 293 nM, a TGI [22] of 1640 nM and a GI50 [23] of 2330 nM. It also gave a TGI [23] of over 100000 nM, a GI50 [24] of 1380 nM and a TGI [24] of 7870 nM. It also gave a GI50 [25] of 253 nM, a TGI [25] of 769 nM and a GI50 [26] of 160 nM. The TGI [26] was 348 nM, the GI50 [27] was 1440 nM and the TGI [27] was 13400 nM. It also gave a GI50 [28] of 1150 nM, a TGI [28] of 4030 nM and a GI50 [29] of 1190 nM. It also gave a TGI [29] of 3360 nM, a GI50 [30] of 1010 nM and a TGI [30] of 3840 nM. It also gave a GI50 [31] of 547 nM, a TGI [31] of 2360 nM and a GI50 [32] of 3600 nM. For the same molecule, the TGI [32] was 40300 nM, the GI50 [33] was 457 nM and the TGI [33] was 1850 nM. The GI50 [34] was 1220 nM, the TGI [34] was 4450 nM and the GI50 [35] was 939 nM. The TGI [35] was 4550 nM, the GI50 [36] was 1910 nM and the TGI [36] was 10100 nM. It also gave a GI50 [37] of 872 nM, a TGI [37] of 2280 nM and a GI50 [38] of 370 nM. The TGI [38] was 1580 nM, the GI50 [39] was 450 nM and the TGI [39] was 1960 nM. For the same molecule, the GI50 [40] was 1420 nM, the TGI [40] was 2900 nM and the GI50 [41] was 1290 nM. For the same molecule, the TGI [41] was 2930 nM, the GI50 [42] was 1480 nM and the TGI [42] was 5050 nM. For the same molecule, the GI50 [43] was 1200 nM, the TGI [43] was 2550 nM and the GI50 [44] was 728 nM. It also gave a TGI [44] of 8860 nM, a GI50 [45] of 1030 nM and a TGI [45] of 2220 nM. The GI50 [46] was 635 nM, the TGI [46] was 3320 nM and the GI50 [47] was 524 nM. The TGI [47] was 5250 nM, the GI50 [48] was 1650 nM and the TGI [48] was 3840 nM. For the same molecule, the GI50 [49] was 85.5 nM, the TGI [49] was 548 nM and the GI50 [50] was 691 nM. It also gave a TGI [50] of 2110 nM, a GI50 [51] of 1360 nM and a TGI [51] of 5540 nM. It also gave a GI50 [52] of 1040 nM, a TGI [52] of 2550 nM and a GI50 [53] of 639 nM. The TGI [53] was 2420 nM.
